In ChEMBL document CHEMBL3885861, “Open TG-GATES”:

Organism: Rattus norvegicus
Experiment: Open TG-GATES - Regimen: Daily Repeat
Assay type: toxicity, organism-based, Sprague-Dawley
Design: regimen Daily Repeat, gender Male, age 6 weeks
Conditions: in vivo, po, route gavage; for APTT / Bas / Eos / Fbg / Hb / Ht / Lym / MCH / MCHC / MCV / Mono / Neu / PT / Plat / RBC / Ret / WBC: tissue Blood; for KIDNEY_L / KIDNEY_R / KIDNEY_TOTAL: tissue Kidney; for LIVER: tissue Liver; for A/G / ALP / ALT / AST / BUN / CRE / Ca / Cl / DBIL / GLC / IP / K / LDH / Na / PL / RALB / TBIL / TC / TG / TP / gamma-GTP: tissue Plasma
[1] = 0 mg/kg, 72 h, dose level Control, time 3 day
[2] = 0 mg/kg, […], dose level Control, time 7 day
[3] = 0 mg/kg, […], dose level Control, time 14 day
[4] = 0 mg/kg, […], dose level Control, time 28 day
[5] = 50 mg/kg, 72 h, dose level Low, time 3 day
[6] = 50 mg/kg, […], dose level Low, time 7 day
[7] = 50 mg/kg, […], dose level Low, time 14 day
[8] = 50 mg/kg, […], dose level Low, time 28 day

## NNC(=O)c1ccncc1 [ISONIAZID]
[1]
  TERMINAL_BW: 219.4 g
  APTT: 14.3 s
  Bas: 0.2%
  Eos: 2%
  Fbg: 229.4 mg/dL
  Hb: 13.6 g/dL
  Ht: 40.8%
  Lym: 74%
  MCH: 21.7 pg
  MCHC: 33.2%
  MCV: 65.2 fL
  Mono: 8.8%
  Neu: 15.6%
  PT: 12.1 s
  Plat: 120.9 x10_4/uL
  RBC: 626.2 x10_4/ul
  Ret: 8.2%
  WBC: 101.8 x10_2/uL
  KIDNEY_L: 0.9 g
  KIDNEY_R: 1 g
  KIDNEY_TOTAL: 1.9 g
  LIVER: 11.3 g
  A/G: 1.8
  ALP: 836.8 IU/L
  ALT: 33.6 IU/L
  AST: 61.8 IU/L
  BUN: 19 mg/dL
  CRE: 0.5 mg/dL
  Ca: 10.8 mg/dL
  Cl: 103.8 meq/L
  DBIL: 0.068 mg/dL
  GLC: 209.2 mg/dL
  IP: 7.6 mg/dL
  K: 5.1 meq/L
  LDH: 102 IU/L
  Na: 139.4 meq/L
  PL: 163.4 mg/dL
  RALB: 3.8 g/dL
  TBIL: 0.3 mg/dL
  TC: 85.8 mg/dL
  TG: 110.2 mg/dL
  TP: 6 g/dL
  gamma-GTP: 1.6 IU/L
[2]
  TERMINAL_BW: 251.9 g
  APTT: 14.6 s
  Bas: 0%
  Eos: 1%
  Fbg: 235 mg/dL
  Hb: 13.8 g/dL
  Ht: 41.5%
  Lym: 76.8%
  MCH: 21.4 pg
  MCHC: 33.4%
  MCV: 64.2 fL
  Mono: 10.2%
  Neu: 11.6%
  PT: 12 s
  Plat: 127.4 x10_4/uL
  RBC: 646.4 x10_4/ul
  Ret: 6%
  WBC: 108.1 x10_2/uL
  KIDNEY_L: 1.1 g
  KIDNEY_R: 1.1 g
  KIDNEY_TOTAL: 2.2 g
  LIVER: 12.3 g
  A/G: 1.7
  ALP: 884.4 IU/L
  ALT: 33 IU/L
  AST: 56.6 IU/L
  BUN: 19.6 mg/dL
  CRE: 0.5 mg/dL
  Ca: 10.6 mg/dL
  Cl: 105 meq/L
  DBIL: 0.074 mg/dL
  GLC: 223.8 mg/dL
  IP: 8.4 mg/dL
  K: 5 meq/L
  LDH: 115.2 IU/L
  Na: 140.4 meq/L
  PL: 163 mg/dL
  RALB: 3.7 g/dL
  TBIL: 0.3 mg/dL
  TC: 81.6 mg/dL
  TG: 130.2 mg/dL
  TP: 5.9 g/dL
  gamma-GTP: 1.2 IU/L
[3]
  TERMINAL_BW: 294 g
  APTT: 16.1 s
  Bas: 0%
  Eos: 1.2%
  Fbg: 224.2 mg/dL
  Hb: 15.1 g/dL
  Ht: 44.9%
  Lym: 78.2%
  MCH: 20.3 pg
  MCHC: 33.5%
  MCV: 60.6 fL
  Mono: 5.5%
  Neu: 14.8%
  PT: 11.8 s
  Plat: 114.6 x10_4/uL
  RBC: 740.8 x10_4/ul
  Ret: 3.9%
  WBC: 109.8 x10_2/uL
  KIDNEY_L: 1.1 g
  KIDNEY_R: 1.1 g
  KIDNEY_TOTAL: 2.2 g
  LIVER: 13.3 g
  A/G: 1.6
  ALP: 783.8 IU/L
  ALT: 29.6 IU/L
  AST: 62 IU/L
  BUN: 19.2 mg/dL
  CRE: 0.6 mg/dL
  Ca: 10.4 mg/dL
  Cl: 106.8 meq/L
  DBIL: 0.002 mg/dL
  GLC: 213.2 mg/dL
  IP: 7.9 mg/dL
  K: 5.1 meq/L
  LDH: 160 IU/L
  Na: 139.4 meq/L
  PL: 151 mg/dL
  RALB: 3.6 g/dL
  TBIL: 0.3 mg/dL
  TC: 76.4 mg/dL
  TG: 144 mg/dL
  TP: 5.9 g/dL
  gamma-GTP: 0.4 IU/L
[4]
  TERMINAL_BW: 374.9 g
  APTT: 15.9 s
  Bas: 0%
  Eos: 1.2%
  Fbg: 227.4 mg/dL
  Hb: 15.5 g/dL
  Ht: 46%
  Lym: 85.8%
  MCH: 19.7 pg
  MCHC: 33.8%
  MCV: 58.2 fL
  Mono: 3.2%
  Neu: 9.2%
  PT: 12 s
  Plat: 106.3 x10_4/uL
  RBC: 790.6 x10_4/ul
  Ret: 2.5%
  WBC: 140.8 x10_2/uL
  KIDNEY_L: 1.3 g
  KIDNEY_R: 1.3 g
  KIDNEY_TOTAL: 2.6 g
  LIVER: 15.5 g
  A/G: 1.4
  ALP: 751.6 IU/L
  ALT: 26.8 IU/L
  AST: 56.4 IU/L
  BUN: 19.4 mg/dL
  CRE: 0.5 mg/dL
  Ca: 10 mg/dL
  Cl: 104.6 meq/L
  DBIL: 0.06 mg/dL
  GLC: 208.8 mg/dL
  IP: 7.2 mg/dL
  K: 4.4 meq/L
  LDH: 73.4 IU/L
  Na: 142.2 meq/L
  PL: 141.8 mg/dL
  RALB: 3.6 g/dL
  TBIL: 0.2 mg/dL
  TC: 70.6 mg/dL
  TG: 125.6 mg/dL
  TP: 6.2 g/dL
  gamma-GTP: 1.4 IU/L
[5]
  TERMINAL_BW: 220.3 g
  APTT: 14.6 s
  Bas: 0%
  Eos: 1.2%
  Fbg: 242.2 mg/dL
  Hb: 13.6 g/dL
  Ht: 40.6%
  Lym: 73.4%
  MCH: 21.8 pg
  MCHC: 33.4%
  MCV: 65.3 fL
  Mono: 11.8%
  Neu: 13.8%
  PT: 12 s
  Plat: 113 x10_4/uL
  RBC: 622.8 x10_4/ul
  Ret: 7.5%
  WBC: 85.3 x10_2/uL
  KIDNEY_L: 1 g
  KIDNEY_R: 1 g
  KIDNEY_TOTAL: 2 g
  LIVER: 11.3 g
  A/G: 1.8
  ALP: 862.8 IU/L
  ALT: 23.2 IU/L
  AST: 57 IU/L
  BUN: 16.6 mg/dL
  CRE: 0.5 mg/dL
  Ca: 10.7 mg/dL
  Cl: 104.6 meq/L
  DBIL: 0.008 mg/dL
  GLC: 225.2 mg/dL
  IP: 8.3 mg/dL
  K: 4.8 meq/L
  LDH: 108.6 IU/L
  Na: 140.2 meq/L
  PL: 145.4 mg/dL
  RALB: 3.8 g/dL
  TBIL: 0.3 mg/dL
  TC: 79.2 mg/dL
  TG: 98 mg/dL
  TP: 5.9 g/dL
  gamma-GTP: 1 IU/L
[6]
  TERMINAL_BW: 247.3 g
  APTT: 15.7 s
  Bas: 0%
  Eos: 1%
  Fbg: 230.4 mg/dL
  Hb: 13.8 g/dL
  Ht: 41.1%
  Lym: 80.8%
  MCH: 20.9 pg
  MCHC: 33.5%
  MCV: 62.3 fL
  Mono: 6.8%
  Neu: 11.2%
  PT: 12.1 s
  Plat: 125.4 x10_4/uL
  RBC: 661.6 x10_4/ul
  Ret: 6.1%
  WBC: 118.4 x10_2/uL
  KIDNEY_L: 1.1 g
  KIDNEY_R: 1.1 g
  KIDNEY_TOTAL: 2.2 g
  LIVER: 12 g
  A/G: 1.5
  ALP: 797.6 IU/L
  ALT: 20.6 IU/L
  AST: 60.6 IU/L
  BUN: 18.4 mg/dL
  CRE: 0.5 mg/dL
  Ca: 10.5 mg/dL
  Cl: 105.6 meq/L
  DBIL: 0.08 mg/dL
  GLC: 227.2 mg/dL
  IP: 8.2 mg/dL
  K: 5 meq/L
  LDH: 113 IU/L
  Na: 139 meq/L
  PL: 147 mg/dL
  RALB: 3.6 g/dL
  TBIL: 0.3 mg/dL
  TC: 73.2 mg/dL
  TG: 100.4 mg/dL
  TP: 6.1 g/dL
  gamma-GTP: 1 IU/L
[7]
  TERMINAL_BW: 307.2 g
  APTT: 15.7 s
  Bas: 0%
  Eos: 1%
  Fbg: 227.8 mg/dL
  Hb: 14 g/dL
  Ht: 41.8%
  Lym: 79%
  MCH: 20.1 pg
  MCHC: 33.5%
  MCV: 60.1 fL
  Mono: 7.4%
  Neu: 12.8%
  PT: 12 s
  Plat: 118.6 x10_4/uL
  RBC: 697.4 x10_4/ul
  Ret: 5.1%
  WBC: 137 x10_2/uL
  KIDNEY_L: 1.2 g
  KIDNEY_R: 1.3 g
  KIDNEY_TOTAL: 2.5 g
  LIVER: 14.1 g
  A/G: 1.6
  ALP: 683 IU/L
  ALT: 19 IU/L
  AST: 58.2 IU/L
  BUN: 16 mg/dL
  CRE: 0.6 mg/dL
  Ca: 10.5 mg/dL
  Cl: 105.8 meq/L
  DBIL: 0 mg/dL
  GLC: 203 mg/dL
  IP: 8.1 mg/dL
  K: 5.1 meq/L
  LDH: 101.6 IU/L
  Na: 138.2 meq/L
  PL: 138.6 mg/dL
  RALB: 3.7 g/dL
  TBIL: 0.3 mg/dL
  TC: 68.8 mg/dL
  TG: 119.2 mg/dL
  TP: 6 g/dL
  gamma-GTP: 0.4 IU/L
[8]
  TERMINAL_BW: 372.9 g
  APTT: 15.6 s
  Bas: 0%
  Eos: 1%
  Fbg: 227.4 mg/dL
  Hb: 14.7 g/dL
  Ht: 44.2%
  Lym: 86.2%
  MCH: 19.1 pg
  MCHC: 33.4%
  MCV: 57.3 fL
  Mono: 2.8%
  Neu: 10%
  PT: 12 s
  Plat: 102.2 x10_4/uL
  RBC: 771.2 x10_4/ul
  Ret: 3%
  WBC: 149.4 x10_2/uL
  KIDNEY_L: 1.4 g
  KIDNEY_R: 1.3 g
  KIDNEY_TOTAL: 2.7 g
  LIVER: 15.1 g
  A/G: 1.4
  ALP: 560.2 IU/L
  ALT: 14.2 IU/L
  AST: 55.2 IU/L
  BUN: 20.4 mg/dL
  CRE: 0.6 mg/dL
  Ca: 10.1 mg/dL
  Cl: 104.8 meq/L
  DBIL: 0.042 mg/dL
  GLC: 208.6 mg/dL
  IP: 7.3 mg/dL
  K: 4.5 meq/L
  LDH: 87.4 IU/L
  Na: 141.4 meq/L
  PL: 138.6 mg/dL
  RALB: 3.6 g/dL
  TBIL: 0.2 mg/dL
  TC: 66.4 mg/dL
  TG: 131.2 mg/dL
  TP: 6.1 g/dL
  gamma-GTP: 1.4 IU/L
